BindingDB's records for doi:10.1021/bi1013479 (University of California Irvine, 2010)

Legend:
Assay in all cases: Inhibitory Assay
[1] = biological target: Nitric oxide synthase, brain (Homo sapiens, UniProt P29475)
Description: (§1) Inhibition assay using nitric oxide synthases.

[2] = biological target: T1, Nitric oxide synthase, endothelial (Homo sapiens, UniProt P29474)
T1 sequence (P29474 whole entry): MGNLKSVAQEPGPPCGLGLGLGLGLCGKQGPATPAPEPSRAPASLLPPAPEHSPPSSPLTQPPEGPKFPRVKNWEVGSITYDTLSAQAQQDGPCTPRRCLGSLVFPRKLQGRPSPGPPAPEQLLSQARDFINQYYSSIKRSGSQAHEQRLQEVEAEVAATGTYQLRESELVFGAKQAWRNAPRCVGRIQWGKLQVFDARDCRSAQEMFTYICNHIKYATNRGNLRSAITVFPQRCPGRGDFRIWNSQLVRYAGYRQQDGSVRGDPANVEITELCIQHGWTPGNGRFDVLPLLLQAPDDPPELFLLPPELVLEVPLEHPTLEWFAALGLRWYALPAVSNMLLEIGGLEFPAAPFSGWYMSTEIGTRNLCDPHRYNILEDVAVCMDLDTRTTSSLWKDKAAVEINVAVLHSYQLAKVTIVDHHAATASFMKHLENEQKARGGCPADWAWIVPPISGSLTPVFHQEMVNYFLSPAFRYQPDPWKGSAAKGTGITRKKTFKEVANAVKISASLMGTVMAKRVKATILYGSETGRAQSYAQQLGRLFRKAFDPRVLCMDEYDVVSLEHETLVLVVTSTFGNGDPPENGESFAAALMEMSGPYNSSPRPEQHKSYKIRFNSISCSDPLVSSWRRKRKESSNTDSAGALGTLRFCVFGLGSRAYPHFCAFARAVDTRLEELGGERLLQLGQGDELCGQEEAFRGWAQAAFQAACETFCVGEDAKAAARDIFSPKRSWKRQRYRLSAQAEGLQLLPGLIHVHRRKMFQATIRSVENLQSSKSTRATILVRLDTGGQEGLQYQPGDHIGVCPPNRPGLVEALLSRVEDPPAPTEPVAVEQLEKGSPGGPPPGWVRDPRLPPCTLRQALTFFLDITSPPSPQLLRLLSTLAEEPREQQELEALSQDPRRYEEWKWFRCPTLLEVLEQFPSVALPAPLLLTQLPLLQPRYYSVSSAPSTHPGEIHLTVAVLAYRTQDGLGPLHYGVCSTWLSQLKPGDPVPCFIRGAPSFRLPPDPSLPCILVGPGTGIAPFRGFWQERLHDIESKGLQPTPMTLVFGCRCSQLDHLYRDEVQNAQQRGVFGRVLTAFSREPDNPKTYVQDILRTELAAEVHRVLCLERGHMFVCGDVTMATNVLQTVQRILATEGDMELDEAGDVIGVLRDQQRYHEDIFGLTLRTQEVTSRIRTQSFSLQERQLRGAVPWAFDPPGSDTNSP
Description: as §1

[3] = biological target: Nitric oxide synthase, inducible (Homo sapiens, UniProt P35228)
Description: as §1

Nitric oxide synthase, brain, sequence (P29475 whole entry): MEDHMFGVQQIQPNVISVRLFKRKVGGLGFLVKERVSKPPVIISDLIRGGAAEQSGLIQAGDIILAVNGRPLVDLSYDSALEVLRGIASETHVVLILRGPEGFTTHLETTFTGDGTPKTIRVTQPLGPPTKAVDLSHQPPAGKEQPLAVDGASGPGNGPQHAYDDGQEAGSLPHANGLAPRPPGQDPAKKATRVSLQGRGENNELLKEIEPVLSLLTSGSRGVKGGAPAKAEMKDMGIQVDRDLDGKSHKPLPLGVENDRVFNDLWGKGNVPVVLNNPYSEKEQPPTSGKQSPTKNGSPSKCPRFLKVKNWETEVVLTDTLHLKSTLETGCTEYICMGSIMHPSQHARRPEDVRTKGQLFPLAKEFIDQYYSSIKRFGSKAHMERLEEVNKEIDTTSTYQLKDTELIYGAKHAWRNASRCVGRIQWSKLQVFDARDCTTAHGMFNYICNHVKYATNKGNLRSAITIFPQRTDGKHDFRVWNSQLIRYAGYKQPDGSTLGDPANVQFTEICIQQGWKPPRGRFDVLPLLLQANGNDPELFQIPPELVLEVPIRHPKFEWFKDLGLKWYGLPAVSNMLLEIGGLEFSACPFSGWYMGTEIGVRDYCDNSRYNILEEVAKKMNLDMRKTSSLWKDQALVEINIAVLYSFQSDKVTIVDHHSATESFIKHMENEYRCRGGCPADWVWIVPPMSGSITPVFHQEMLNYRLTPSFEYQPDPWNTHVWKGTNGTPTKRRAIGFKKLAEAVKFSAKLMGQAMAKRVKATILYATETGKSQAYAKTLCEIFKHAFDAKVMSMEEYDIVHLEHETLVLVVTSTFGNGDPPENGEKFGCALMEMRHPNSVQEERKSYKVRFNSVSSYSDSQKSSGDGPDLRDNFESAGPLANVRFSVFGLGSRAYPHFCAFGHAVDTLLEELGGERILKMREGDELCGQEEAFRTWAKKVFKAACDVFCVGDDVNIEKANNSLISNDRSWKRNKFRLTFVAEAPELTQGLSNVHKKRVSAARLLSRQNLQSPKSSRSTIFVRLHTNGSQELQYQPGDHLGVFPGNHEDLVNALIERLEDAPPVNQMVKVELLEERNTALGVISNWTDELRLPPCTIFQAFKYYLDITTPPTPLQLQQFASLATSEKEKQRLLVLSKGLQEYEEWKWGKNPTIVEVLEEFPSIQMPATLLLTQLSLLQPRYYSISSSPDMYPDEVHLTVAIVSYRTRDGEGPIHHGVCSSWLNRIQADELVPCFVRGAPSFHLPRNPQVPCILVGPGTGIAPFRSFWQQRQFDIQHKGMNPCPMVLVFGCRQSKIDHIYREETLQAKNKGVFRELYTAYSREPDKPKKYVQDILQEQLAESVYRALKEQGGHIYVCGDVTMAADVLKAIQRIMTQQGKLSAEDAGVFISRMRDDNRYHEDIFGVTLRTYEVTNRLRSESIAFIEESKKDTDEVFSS
Nitric oxide synthase, inducible, sequence (P35228 whole entry): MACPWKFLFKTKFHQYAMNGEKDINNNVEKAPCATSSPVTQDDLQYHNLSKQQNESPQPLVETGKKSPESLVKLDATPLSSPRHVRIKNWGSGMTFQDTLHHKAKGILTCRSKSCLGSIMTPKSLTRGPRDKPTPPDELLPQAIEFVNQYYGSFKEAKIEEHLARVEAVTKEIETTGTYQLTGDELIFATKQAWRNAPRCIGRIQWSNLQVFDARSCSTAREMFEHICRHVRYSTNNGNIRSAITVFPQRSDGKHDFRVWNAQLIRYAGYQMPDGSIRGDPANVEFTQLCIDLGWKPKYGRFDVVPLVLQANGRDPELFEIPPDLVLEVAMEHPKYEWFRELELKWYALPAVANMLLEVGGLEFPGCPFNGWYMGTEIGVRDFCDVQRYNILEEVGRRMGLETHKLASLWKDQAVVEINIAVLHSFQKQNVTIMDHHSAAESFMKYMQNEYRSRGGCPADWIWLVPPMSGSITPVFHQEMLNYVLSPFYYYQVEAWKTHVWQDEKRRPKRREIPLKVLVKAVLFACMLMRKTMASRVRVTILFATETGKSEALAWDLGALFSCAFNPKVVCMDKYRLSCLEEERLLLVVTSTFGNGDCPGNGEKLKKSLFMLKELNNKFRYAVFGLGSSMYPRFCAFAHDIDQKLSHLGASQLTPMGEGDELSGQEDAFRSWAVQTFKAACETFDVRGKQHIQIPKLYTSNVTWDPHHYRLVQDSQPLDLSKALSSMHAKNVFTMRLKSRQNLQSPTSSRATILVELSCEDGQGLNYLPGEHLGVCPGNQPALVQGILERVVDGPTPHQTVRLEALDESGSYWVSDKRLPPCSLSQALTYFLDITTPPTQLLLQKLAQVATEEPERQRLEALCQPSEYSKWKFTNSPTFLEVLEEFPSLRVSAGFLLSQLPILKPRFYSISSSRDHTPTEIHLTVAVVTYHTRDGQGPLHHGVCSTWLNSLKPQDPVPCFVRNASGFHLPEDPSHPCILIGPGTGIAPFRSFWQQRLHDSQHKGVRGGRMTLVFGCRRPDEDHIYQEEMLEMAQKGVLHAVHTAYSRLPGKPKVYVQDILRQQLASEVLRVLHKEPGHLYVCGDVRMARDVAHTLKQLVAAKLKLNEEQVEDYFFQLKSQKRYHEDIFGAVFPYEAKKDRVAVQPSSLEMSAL

## Cc1cc(N)nc(CCc2cccc(CCc3cc(C)nc(N)c3)n2)c1
[1]
  Ki: 195 nM
[2]
  Ki: 20 µM
[3]
  Ki: 12.6 µM

## Cc1cc(N)nc(CCc2cc(N)cc(CCc3cc(C)cc(N)n3)c2)c1 [6,6'-[(5-aminobenzene-1,3-diyl)diethane-2,1-diyl]bis(4-methylpyridin-2-amine)]
[1]
  Ki: 85 nM
[2]
  Ki: 4.95 µM
[3]
  Ki: 3.4 µM

## Cc1cc(N)nc(CCc2cncc(CCc3cc(C)nc(N)c3)c2)c1 [6-(2-{5-[2-(2-amino-6-methylpyridin-4-yl)ethyl]pyridin-3-yl}ethyl)-4-methylpyridin-2-amine]
[1]
  Ki: 103 nM
[2]
  Ki: 16.1 µM
[3]
  Ki: 1.91 µM

## Cc1cc(N)nc(CCc2cccc(CCc3cc(C)cc(N)n3)c2)c1 [NOS Inhibitor, 3h]
[2]
  Ki: 4.2 µM
[3]
  Ki: 2.73 µM
